Experimental data taken from ChEMBL document CHEMBL3885881, “DrugMatrix”.
“And” between values parts separate entries of the source, which are not always exact repeats. Equal entries are not always repeated.

Organism: Rattus norvegicus
Format: toxicity, organism-based, Sprague-Dawley
Settings: in vivo, 24 h, time 1 day; for ABSOLUTE BASOPHIL / ABSOLUTE EOSINOPHIL / ABSOLUTE LYMPHOCYTE / ABSOLUTE MONOCYTE / BASOPHIL / EOSINOPHIL / ERYTHROCYTE COUNT / HEMATOCRIT / HEMOGLOBIN / LEUKOCYTE COUNT / LYMPHOCYTE / MEAN CORPUSCULAR HEMOGLOBIN / MEAN CORPUSCULAR HEMOGLOBIN CONCENTRATION / MEAN CORPUSCULAR VOLUME / MONOCYTE / NEUTROPHIL / PLATELET COUNT / ABSOLUTE SEGMENTED NEUTROPHIL / NUCLEATED RED BLOOD CELLS: tissue Blood; for ALANINE AMINOTRANSFERASE / ALBUMIN / ALKALINE PHOSPHATASE / ASPARTATE AMINOTRANSFERASE / BLOOD UREA NITROGEN / CARBON DIOXIDE / CHLORIDE / CHOLESTEROL / CREATINE PHOSPHOKINASE / CREATININE / GLUCOSE / LACTATE DEHYDROGENASE / LIPASE / PHOSPHORUS / POTASSIUM / SODIUM / TOTAL BILIRUBIN / TOTAL PROTEIN / URIC ACID: tissue Plasma
[1] = po, 0 mg/kg, vehicle control, route oral GAVAGE, dose level Control, […]
[2] = po, 900 mg/kg, route oral GAVAGE, dose level High, […]
[3] = sc, 0 mg/kg, vehicle control, route mini-PUMP - SUBCUTANEOUS, dose level Control, vehicle 100 % SALINE
[4] = sc, 0.5 mg/kg, route mini-PUMP - SUBCUTANEOUS, dose level High, vehicle 100 % SALINE
[5] = sc, […], route mini-PUMP - SUBCUTANEOUS, dose 0.72 mg/Kg, dose level High, vehicle 100 % SALINE

Description: DrugMatrix - Regimen: Single

Clc1ccc(Cl)cc1 [1,4-DICHLOROBENZENE]
ABSOLUTE BASOPHIL [1]: 46.7 cells/µL | ABSOLUTE EOSINOPHIL [1]: 130 cells/µL | ABSOLUTE LYMPHOCYTE [1]: 8720 cells/µL | ABSOLUTE MONOCYTE [1]: 140 cells/µL | BASOPHIL [1]: 0.43% | EOSINOPHIL [1]: 1.33% | ERYTHROCYTE COUNT [1]: 6.45 x10E6/uL | HEMATOCRIT [1]: 42.2% | HEMOGLOBIN [1]: 13.33 G/DL | LEUKOCYTE COUNT [1]: 10.59 x10E3/uL | LYMPHOCYTE [1]: 82.13% | MEAN CORPUSCULAR HEMOGLOBIN [1]: 20.67 pg | MEAN CORPUSCULAR HEMOGLOBIN CONCENTRATION [1]: 31.6 G/DL | MEAN CORPUSCULAR VOLUME [1]: 65.4 fL | MONOCYTE [1]: 1.37% | NEUTROPHIL [1]: 14.3% | PLATELET COUNT [1]: 1048.67 x10E3/uL | ALANINE AMINOTRANSFERASE [1]: 44 u/L | ALBUMIN [1]: 3.93 G/DL | ALKALINE PHOSPHATASE [1]: 551.33 u/L | ASPARTATE AMINOTRANSFERASE [1]: 97 u/L | BLOOD UREA NITROGEN [1]: 13.5 mg/dL | CARBON DIOXIDE [1]: 37.33 mmol/L | CHLORIDE [1]: 102.33 MEQ/L | CHOLESTEROL [1]: 83 mg/dL | CREATINE PHOSPHOKINASE [1]: 365.33 u/L | CREATININE [1]: 0.4 mg/dL | GLUCOSE [1]: 189 mg/dL | LACTATE DEHYDROGENASE [1]: 170.33 u/L | LIPASE [1]: 10.67 u/L | PHOSPHORUS [1]: 11.53 mg/dL | POTASSIUM [1]: 5.63 MEQ/L | SODIUM [1]: 144.33 MEQ/L | TOTAL BILIRUBIN [1]: 0.4 mg/dL | TOTAL PROTEIN [1]: 6.27 G/DL | URIC ACID [1]: 0.87 mg/dL | ABSOLUTE BASOPHIL [2]: 10 cells/µL | ABSOLUTE EOSINOPHIL [2]: 23.3 cells/µL | ABSOLUTE LYMPHOCYTE [2]: 4230 cells/µL | ABSOLUTE MONOCYTE [2]: 80 cells/µL | BASOPHIL [2]: 0.2% | EOSINOPHIL [2]: 0.5% | ERYTHROCYTE COUNT [2]: 6.97 x10E6/uL | HEMATOCRIT [2]: 46.93% | HEMOGLOBIN [2]: 15 G/DL | LEUKOCYTE COUNT [2]: 5.04 x10E3/uL | LYMPHOCYTE [2]: 83.5% | MEAN CORPUSCULAR HEMOGLOBIN [2]: 21.5 pg | MEAN CORPUSCULAR HEMOGLOBIN CONCENTRATION [2]: 31.97 G/DL | MEAN CORPUSCULAR VOLUME [2]: 67.33 fL | MONOCYTE [2]: 1.67% | NEUTROPHIL [2]: 13.93% | PLATELET COUNT [2]: 1227 x10E3/uL | ALANINE AMINOTRANSFERASE [2]: 45.33 u/L | ALBUMIN [2]: 3.87 G/DL | ALKALINE PHOSPHATASE [2]: 421.33 u/L | ASPARTATE AMINOTRANSFERASE [2]: 99.33 u/L | BLOOD UREA NITROGEN [2]: 12.67 mg/dL | CARBON DIOXIDE [2]: 34.67 mmol/L | CHLORIDE [2]: 103 MEQ/L | CHOLESTEROL [2]: 65.67 mg/dL | CREATINE PHOSPHOKINASE [2]: 827.67 u/L | CREATININE [2]: 0.5 mg/dL | GLUCOSE [2]: 188.67 mg/dL | LACTATE DEHYDROGENASE [2]: 235.33 u/L | LIPASE [2]: 15.67 u/L | PHOSPHORUS [2]: 13.87 mg/dL | POTASSIUM [2]: 6 MEQ/L | SODIUM [2]: 142.67 MEQ/L | TOTAL BILIRUBIN [2]: 0.8 mg/dL | TOTAL PROTEIN [2]: 6.33 G/DL | URIC ACID [2]: 0.7 mg/dL

CC[C@H](C)[C@H](NC(=O)[C@H](Cc1ccc(O)cc1)NC(=O)[C@@H](NC(=O)[C@H](CCCNC(=N)N)NC(=O)[C@@H](N)CC(=O)O)C(C)C)C(=O)N[C@@H](Cc1cnc[nH]1)C(=O)N1CCC[C@H]1C(=O)N[C@@H](Cc1ccccc1)C(=O)O [ANGIOTENSIN II]
ABSOLUTE SEGMENTED NEUTROPHIL [3]: 1753.5 CELLS/uL | BASOPHIL [3]: 0.4% and 0% | EOSINOPHIL [3]: 0.3% and 0.17% | ERYTHROCYTE COUNT [3]: 6.25 x10E6/uL and 5.64 x10E6/uL | HEMATOCRIT [3]: 41.8% and 34.52% | HEMOGLOBIN [3]: 13.33 G/DL and 12.68 G/DL | LEUKOCYTE COUNT [3]: 11.55 x10E3/uL and 13 x10E3/uL | MEAN CORPUSCULAR HEMOGLOBIN [3]: 21.37 pg and 22.5 pg | MEAN CORPUSCULAR HEMOGLOBIN CONCENTRATION [3]: 31.93 G/DL and 36.78 G/DL | MEAN CORPUSCULAR VOLUME [3]: 66.93 fL and 61.18 fL | MONOCYTE [3]: 2.4% and 1.83% | NEUTROPHIL [3]: 23.4% and 13.5% | NUCLEATED RED BLOOD CELLS [3]: 0.17 /100WBC | PLATELET COUNT [3]: 1265.33 x10E3/uL and 679.17 x10E3/uL | ALBUMIN [3]: 3.63 G/DL and 3.77 G/DL | ALKALINE PHOSPHATASE [3]: 385.33 u/L and 291.17 u/L | ASPARTATE AMINOTRANSFERASE [3]: 79.33 u/L and 74.5 u/L | BLOOD UREA NITROGEN [3]: 13.33 mg/dL and 15.33 mg/dL | CARBON DIOXIDE [3]: 40.67 mmol/L and 30 mmol/L | CHOLESTEROL [3]: 86.33 mg/dL and 65.33 mg/dL | CREATINE PHOSPHOKINASE [3]: 190.33 u/L | CREATININE [3]: 0.4 mg/dL and 0.15 mg/dL | GLUCOSE [3]: 165.67 mg/dL and 179.83 mg/dL | LACTATE DEHYDROGENASE [3]: 103.33 u/L and 162.67 u/L | PHOSPHORUS [3]: 11.7 mg/dL and 12.2 mg/dL | POTASSIUM [3]: 5.5 MEQ/L and 5.73 MEQ/L | SODIUM [3]: 145 MEQ/L and 144.7 MEQ/L | TOTAL BILIRUBIN [3]: 0.27 mg/dL and 0.15 mg/dL | URIC ACID [3]: 1 mg/dL and 1.93 mg/dL | ABSOLUTE BASOPHIL [4]: 13.3 cells/µL | ABSOLUTE EOSINOPHIL [4]: 46.7 cells/µL | ABSOLUTE LYMPHOCYTE [4]: 5400 cells/µL | ABSOLUTE MONOCYTE [4]: 230 cells/µL | BASOPHIL [4]: 0.13% | EOSINOPHIL [4]: 0.6% | ERYTHROCYTE COUNT [4]: 6.26 x10E6/uL | HEMATOCRIT [4]: 42.23% | HEMOGLOBIN [4]: 13.53 G/DL | LEUKOCYTE COUNT [4]: 7.88 x10E3/uL | MEAN CORPUSCULAR HEMOGLOBIN [4]: 21.63 pg | MEAN CORPUSCULAR HEMOGLOBIN CONCENTRATION [4]: 32.03 G/DL | MEAN CORPUSCULAR VOLUME [4]: 67.47 fL | MONOCYTE [4]: 2.8% | NEUTROPHIL [4]: 26.93% | PLATELET COUNT [4]: 1308.33 x10E3/uL | ALBUMIN [4]: 3.93 G/DL | ALKALINE PHOSPHATASE [4]: 341.33 u/L | ASPARTATE AMINOTRANSFERASE [4]: 74 u/L | BLOOD UREA NITROGEN [4]: 14 mg/dL | CARBON DIOXIDE [4]: 42.67 mmol/L | CHOLESTEROL [4]: 106.33 mg/dL | CREATINE PHOSPHOKINASE [4]: 299.33 u/L | CREATININE [4]: 0.5 mg/dL | GLUCOSE [4]: 169.33 mg/dL | LACTATE DEHYDROGENASE [4]: 65.33 u/L | PHOSPHORUS [4]: 11.73 mg/dL | POTASSIUM [4]: 5.2 MEQ/L | SODIUM [4]: 146.33 MEQ/L | TOTAL BILIRUBIN [4]: 0.2 mg/dL | URIC ACID [4]: 0.93 mg/dL | ABSOLUTE EOSINOPHIL [5]: 30.33 CELLS/uL | ABSOLUTE LYMPHOCYTE [5]: 10495 CELLS/uL | ABSOLUTE MONOCYTE [5]: 212 CELLS/uL | ABSOLUTE SEGMENTED NEUTROPHIL [5]: 2262.67 CELLS/uL | BASOPHIL [5]: 0% | EOSINOPHIL [5]: 0.33% | ERYTHROCYTE COUNT [5]: 6.56 x10E6/uL | HEMATOCRIT [5]: 38.97% | HEMOGLOBIN [5]: 14.37 G/DL | LEUKOCYTE COUNT [5]: 13 x10E3/uL | MEAN CORPUSCULAR HEMOGLOBIN [5]: 21.9 pg | MEAN CORPUSCULAR HEMOGLOBIN CONCENTRATION [5]: 36.87 G/DL | MEAN CORPUSCULAR VOLUME [5]: 59.37 fL | MONOCYTE [5]: 1.67% | NEUTROPHIL [5]: 17.67% | NUCLEATED RED BLOOD CELLS [5]: 0.33 /100WBC | PLATELET COUNT [5]: 1167.67 x10E3/uL | ALBUMIN [5]: 4 G/DL | ALKALINE PHOSPHATASE [5]: 462 u/L | ASPARTATE AMINOTRANSFERASE [5]: 98.67 u/L | BLOOD UREA NITROGEN [5]: 19 mg/dL | CARBON DIOXIDE [5]: 32 mmol/L | CHOLESTEROL [5]: 87 mg/dL | CREATININE [5]: 0.14 mg/dL | GLUCOSE [5]: 171 mg/dL | LACTATE DEHYDROGENASE [5]: 143.33 u/L | PHOSPHORUS [5]: 13.13 mg/dL | POTASSIUM [5]: 6.48 MEQ/L | SODIUM [5]: 141.6 MEQ/L | TOTAL BILIRUBIN [5]: 0.2 mg/dL | URIC ACID [5]: 2.37 mg/dL
